EPA's ToxValDB 9.5 (doi:10.2903/j.efsa.2013.3243)
Values after ≈ are worked out from the molar mass of the structure shown.

Tests used:
Daphnia magna = conditions: chronic/long-term; duration: 21 days; mobility
Cyprinodon variegatus = conditions: acute; duration: 96 hours; mortality
Bibionidae = conditions: chronic/long-term; duration: 21 days; other
Tagia sp. = conditions: acute; duration: 14 days; mortality
Colinus virginianus = conditions: acute, oral, mortality
Canidae = conditions: chronic; duration: 52 weeks; oral; Dog Other; organ weight
Pimephales promelas = conditions: chronic/long-term; duration: 33 days; other
Apis mellifera = conditions: acute, duration: 48 hours, mortality
Anas platyrhynchos = conditions: reproductive
Typhlodromus pyri = assay: LR50; higher = less toxic; conditions: acute; duration: 7 days; mortality
Aphidius rhopalosiphi = assay: LR50; higher = less toxic; conditions: acute; duration: 48 hours; mortality

CCOC(=O)OC1=C(c2cc(C)ccc2C)C(=O)NC12CCC(OC)CC2 (stereo unspecified) [Spirotetramat]
NOEC (Daphnia magna): 2 mg/L | LC50 (Cyprinodon variegatus): 1.96 µg/mL (≈ 5.25 µM) | NOEC (Bibionidae): 0.1 mg/L | LC50 (Tagia sp.): > 1000 mg/kg | LC50 (Colinus virginianus; diet): > 475 mg/kg-day | LD50 (Colinus virginianus): > 2000 mg/kg-day | NOAEL (Canidae): 5 mg/kg-day | NOEC (Pimephales promelas): 0.534 mg/L | LD50 (Apis mellifera; dermal): > 100 µg/piece | LD50 (Apis mellifera; oral, unspecified): > 107 µg/piece | NOAEL (Rattus norvegicus; acute, clinical signs): 100 mg/kg-day | LD50 (Rattus norvegicus; acute, oral, mortality): > 2000 mg/kg-day | NOAEL (Rattus norvegicus; reproduction developmental, body weight): 70 mg/kg-day | NOAEL (Anas platyrhynchos): 4 mg/kg-day | LR50 (Typhlodromus pyri): 0.333 g/ha | LR50 (Aphidius rhopalosiphi): 115 g/ha
